Several values for one entry are separate records, joined by “and”; a condition that tells them apart may be missing. Equal values may be shown once. Read-outs that look alike come from different tables or passages of the source.
Tests used:
[1] = pKa by UV–vis titrations in 30% (v/v) DMSO/H2O; format: physicochemical; conditions: 30% (v/v) DMSO/H2O solvent mixture, I = 0.1 M (KCl), T = 25 °C
Text: Proton dissociation constants (pKa) of drug molecules indicate the actual protonation state and the charge at a given pH, and therefore pKa are important parameters that affect the pharmacokinetic properties as well.
On the basis of the spectral changes two well-separated deprotonation processes were observed between pH 2 and 11. The first proton dissociation step taking place at pH < 5 is accompanied by a blue shift, and the λmax is shifted from 362 to 322 nm. This deprotonation step is attributed to the proton on the pyridinium nitrogen (PyH^+). Upon an increase of the pH a new process occurred as evidenced by a new band in the range of 350–450 nm (Figure 7b) and an isosbestic point at 350 nm, namely, the deprotonation of the hydrazinic nitrogen. In the strongly basic pH range (pH > 11.2) new broad bands appear at 400–600 nm (Figure 7b) with irreversible spectral changes most likely due to an oxidation of the TSC by the air oxygen.
Therefore, only two pKa values could be determined (Table 1) based on the deconvolution of the UV–vis spectra recorded at pH < 11.2 for HL^1 (molar absorbance spectra are seen in Figure S8a) as the oxidation hindered the accurate determination of the pKa for the aromatic OH group. Two pKa values were computed for HL^2 from the UV–vis titration data (Figure S9) as well; however, only one pKa was obtained in the case of HL^3 (Table 1), namely, that for the deprotonation of the PyH^+, since the proton dissociation of the hydrazinic nitrogen and the oxidation of the TSC were partly overlapped. On the basis of the determined pKa values, it can be concluded that the presence of the electron-donating methyl group in HL^2 results in a significant increase of both pKa values when compared to that of HL^1. A similar behavior was reported for the analogous 2-formylpyridine and 2-acetylpyridine TSC in our previous work.[67] […] All proligands are air-sensitive in the strongly basic pH range (pH > 11).
The metal complexes often undergo transformation processes upon dissolution, such as protonation, deprotonation, or dissociation to a metal-free ligand and metal ion depending on the pH, their concentration, and the solution speciation. The knowledge of the actual chemical form of the biologically active metal complexes in solution close to physiologically relevant conditions is quite important to elucidate the mechanism of action. Therefore, the solution stability of the copper(II) complexes (Cu(HL^1)Cl2, [Cu(L^2)Cl], and Cu(HL^3)Cl2) was studied by UV–vis spectrophotometry. […] At lower pH this type of complex is protonated, and thus the neutral ligand is bound via (Npyridine,N,S) donor atoms, while a mixed hydroxido complex with the (Npyridine,N,S^–)(OH) coordination pattern is formed in the basic pH range. On the basis of the close structural similarities between HL^1–HL^3 and the listed TSCs with a simpler scaffold, the formation of the same type of complexes is feasible. UV–vis titrations were performed with the complexes in a 30% (v/v) DMSO/H2O solvent mixture, and representative spectra are shown for Cu(HL^1)Cl2 in Figure 8. The spectra remain intact in a broad pH range (2.7–7.6), and an absorption band is observed with λmax at 406 nm being typical for a S → Cu charge transfer. This finding indicates the dominant presence of only one kind of complex, which is most probably the species with the (Npyridine,N,S^–) tridentate coordination mode. By decreasing the pH the λmax is hypsochromically shifted to 322 nm. […]

SW480 cells = test: Cell cycle distribution by flow cytometry; format: cell-based, human; conditions: 24 h
Text: […] TEXT PRINTED IN THE PICTURE: (A) no label printed: S: 27.7% | (B) no label printed: S: 33.8% | (C) no label printed: S: 44.0% | (D) no label printed: S: 46.5% DOUBTS OF THE COPYIST ABOUT THIS PICTURE: No substance labels are printed in the picture, only the panel letters A-D. / The phase label "S" is printed only in panel A. Applying it to the percentages in panels B, C and D is assumed from where the marker line sits.

Colo320 cells = test: Annexin-V-FITC/PI apoptosis induction assay (flow cytometry); format: cell-based, human; conditions: for Cell death % Q1 / Early apoptosis % Q3 / Late apoptosis and necrosis % Q2: 3 h induction
Procedure: To gain further insights into the cytotoxic behavior of the compounds, apoptosis induction by lead compounds HL^1 and [Cu(L^2)Cl] was investigated by a flow cytometry analysis of multidrug-resistant Colo320 cells stained with Annexin-V-FITC and propidium iodide (PI).
Colo320 cells were treated at the indicated concentration of the drugs. The dual parametric dot plots that combine the Annexin-V (FL1) and PI (FL3) fluorescence show the viable cell population in the lower-left quadrant Annexin-V–/PI– (Q4), the early apoptotic cells in the lower-right quadrant Annexin-V+/PI– (Q3), and the late apoptotic and necrotic cells in the upper-right quadrant Annexin-V+/PI+ (Q2). […]
2.5.3. Mechanisms of cell death: assay for apoptosis induction
The assay was carried out for selected compounds using an Annexin V-FITC Apoptosis Detection
Kit (Cat. No. APOAF-50TST) from Sigma according to the manufacturer's instructions. The
concentration of the Colo320 cell suspension was adjusted to approximately 0.5 × 10^6 cells per
mL in RPMI medium and the cell suspension was distributed in 1 mL aliquots into a 24-well plate,
and then incubated overnight at 37 °C and 5% CO2. On the following day, the medium was
removed and replaced by 1 mL RPMI medium containing the compounds except the control
samples. Colo320 cells were incubated in the presence of the compounds at 4 and 8 μM (HL1), or
0.25 and 0.50 μM (Cu(HL2)Cl2) in the 24-well plate at 37 °C for 3 h, and 12H-
controls. After the incubation period the samples were washed with PBS and fresh RPMI medium
was added to the samples. The cells were incubated overnight at 37 °C and 5% CO2. The next day,
200 μL 0.25% Trypsin (Trypsin-Versen) was added to the samples until cells appeared detached
followed by the addition of 400 μL of RPMI medium supplemented with 10% bovine serum. The
cells were collected in Eppendorf tubes and centrifuged at 2000 g for 2 min. The harvested cells
were resuspended in fresh serum free RPMI medium culture medium. After this step, the apoptosis
assay was carried out according to the instructions of the manufacturer. The fluorescence was
analyzed immediately using a ParTec CyFlow flow cytometer (Partec GmbH, Münster, Germany). […]

SMILES: CC(=NNC(=S)Nc1cc(C)c(O)c(C)c1)c1ccccn1 [HL^2, 2-Acetylpyridine 4-(4-hydroxy-3,5-dimethylphenyl)thiosemicarbazone]
- pKa ([1]; read-out: pKa (NNH)): 11.08 ± 0.02
- pKa ([1]; read-out: pKa (PyH^+)): 3.59 ± 0.02

SMILES: Cc1cc(NC(=S)NN=Cc2ncccc2N)cc(C)c1O [HL^3, 3-Amino-2-formylpyridine 4-(4-hydroxy-3,5-dimethylphenyl)thiosemicarbazone]
- pKa ([1]; read-out: pKa (PyH^+)): 3.95 ± 0.04

SMILES: Cc1cc(NC(=S)NN=Cc2ccccn2)cc(C)c1O [HL^1, 2-Formylpyridine 4-(4-hydroxy-3,5-dimethylphenyl)thiosemicarbazone]
- pKa ([1]; read-out: pKa (NNH)): 10.55 ± 0.01
- pKa ([1]; read-out: pKa (PyH^+)): 3.01 ± 0.01
- G1 phase cells (SW480 cells; 1 µM): 48.5%
- G2 phase cells (SW480 cells; 1 µM): 19.4%
- S phase cells (SW480 cells; 1 µM): 32.0%
- G0/G1 phase cells (SW480 cells; 10 µM): 49.2% and 49.2 ± 1.6%
- G2/M phase cells (SW480 cells; 10 µM): 12.3% and 12.3 ± 4.4%
- S phase cells (SW480 cells; 10 µM): 37.1 ± 4.7%
- Cell death % Q1 (Colo320 cells; 4 µM): 2.79%
- Early apoptosis % Q3 (Colo320 cells; 4 µM): 6.19%
- Late apoptosis and necrosis % Q2 (Colo320 cells; 4 µM): 12.4%
- Cell death % Q1 (Colo320 cells; 8 µM): 1.57%
- Early apoptosis % Q3 (Colo320 cells; 8 µM): 7.65%
- Late apoptosis and necrosis % Q2 (Colo320 cells; 8 µM): 7.0%
- viability at 4 µM (Colo320 cells; Homo sapiens, COLO 320, 4 μM, read-out: viable cell population Q4): 78.6%
